In patent publication US5854029A, “Method for preparing antihypertensive agent” (Calpis Co., Ltd., priority 1996, dated 1998):
Peptide text beside a SMILES is read from it.

Tests used:
[1] = target: Angiotensin converting enzyme (ACE) (Homo sapiens, UniProt P12821); details: J. Dairy Sci. 78:777-783; cited from earlier work
[2] = tested on: spontaneously hypertensive rats (SHR); details: J. Dairy Sci. 78:1253-1257; cited from earlier work
[3] = tested on: WKY rats showing normal blood pressure; assay: One-month continuous oral administration to WKY rats (safety); type: in vivo, rat; details: 10 mg/kg body weight/day continuously for one month
Description: Foods fermented with Lactobacillus bacteria have been eaten by human beings for a long time, and it is therefore assumed that Tyr-Pro contained in the antihypertensive agent of the present invention has no problem in safety.

Sequence of Angiotensin converting enzyme (ACE) (P12821 30-1306, species assumed): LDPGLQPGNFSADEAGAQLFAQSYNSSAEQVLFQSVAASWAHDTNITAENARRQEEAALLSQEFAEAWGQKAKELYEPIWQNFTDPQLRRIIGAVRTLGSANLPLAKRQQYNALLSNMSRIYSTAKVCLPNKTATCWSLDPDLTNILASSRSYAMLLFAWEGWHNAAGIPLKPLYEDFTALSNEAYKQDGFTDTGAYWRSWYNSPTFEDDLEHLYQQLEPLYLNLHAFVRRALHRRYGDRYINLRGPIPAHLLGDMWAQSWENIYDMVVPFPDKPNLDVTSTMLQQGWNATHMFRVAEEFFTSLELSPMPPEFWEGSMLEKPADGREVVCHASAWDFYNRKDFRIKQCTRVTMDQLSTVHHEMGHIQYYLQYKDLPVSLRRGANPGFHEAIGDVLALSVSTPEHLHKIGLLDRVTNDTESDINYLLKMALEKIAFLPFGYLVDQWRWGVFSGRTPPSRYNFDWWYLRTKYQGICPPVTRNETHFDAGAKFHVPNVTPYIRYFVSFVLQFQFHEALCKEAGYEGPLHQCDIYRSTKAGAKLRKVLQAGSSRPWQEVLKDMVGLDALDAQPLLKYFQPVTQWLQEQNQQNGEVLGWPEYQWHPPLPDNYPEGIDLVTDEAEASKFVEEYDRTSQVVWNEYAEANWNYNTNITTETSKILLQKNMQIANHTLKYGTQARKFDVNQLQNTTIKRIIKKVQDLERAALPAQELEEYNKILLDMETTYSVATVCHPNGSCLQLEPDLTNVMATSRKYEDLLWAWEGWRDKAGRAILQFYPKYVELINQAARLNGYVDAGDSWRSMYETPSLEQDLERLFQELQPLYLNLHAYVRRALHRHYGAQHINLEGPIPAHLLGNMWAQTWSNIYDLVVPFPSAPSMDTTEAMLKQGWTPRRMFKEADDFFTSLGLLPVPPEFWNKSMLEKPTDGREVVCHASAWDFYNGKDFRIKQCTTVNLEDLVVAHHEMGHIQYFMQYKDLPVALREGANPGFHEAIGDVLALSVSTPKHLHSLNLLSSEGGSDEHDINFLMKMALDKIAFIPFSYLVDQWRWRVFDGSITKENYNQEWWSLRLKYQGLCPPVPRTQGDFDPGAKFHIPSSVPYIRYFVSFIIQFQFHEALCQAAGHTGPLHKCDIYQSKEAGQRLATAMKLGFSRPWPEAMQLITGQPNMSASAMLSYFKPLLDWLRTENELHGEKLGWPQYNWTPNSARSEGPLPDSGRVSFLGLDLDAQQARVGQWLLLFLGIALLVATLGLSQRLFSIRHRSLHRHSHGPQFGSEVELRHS

| Molecule | ACE inhibiting activity (result in words) [1] | Antihypertensive effect in SHR (result in words) [2] | Abnormality in behavior, appearance, blood pressure and autopsy [3] |
| --- | --- | --- | --- |
| Val-Pro-Pro | strong ACE inhibiting activity | strong antihypertensive effect | – |
| N[C@@H](Cc1ccc(O)cc1)C(=O)N1CCC[C@H]1C(=O)O [Tyr-Pro] (H-Tyr-Pro-OH) | – | – | no abnormality was found |
| Ile-Pro-Pro | strong ACE inhibiting activity | strong antihypertensive effect | – |
